Source: US9890407B2, “Method for synthesizing cellulose in vitro” (University of Virginia Patent Foundation, priority 2013, dated 2018)

Tests used:
[1] = target: T1, Rhodobacter sphaeroides BcsA-B complex (cellulose synthase), wild type, BcsA SEQ ID NO: 1, BcsB SEQ ID NO: 3 (Cereibacter sphaeroides, UniProt Q3J125); experiment: Inhibition of cellulose synthesis by alternative substrates (enzyme-coupled assay, PLs-reconstituted BcsA-B); format: biochemical; settings: 1 mM UDP-Glc; for inhibition of polymer synthesis by alternative UDP-sugars: increasing concentrations of UDP-sugar; for reduction of the apparent reaction rate (inhibition): 5 mM alternative UDP-sugar, 90 min, 37° C.
T1 construct: pETDuet, E. coli C43; purified, reconstituted in nanodiscs, proteoliposomes or detergent
T1 sequence (Q3J125 1-788): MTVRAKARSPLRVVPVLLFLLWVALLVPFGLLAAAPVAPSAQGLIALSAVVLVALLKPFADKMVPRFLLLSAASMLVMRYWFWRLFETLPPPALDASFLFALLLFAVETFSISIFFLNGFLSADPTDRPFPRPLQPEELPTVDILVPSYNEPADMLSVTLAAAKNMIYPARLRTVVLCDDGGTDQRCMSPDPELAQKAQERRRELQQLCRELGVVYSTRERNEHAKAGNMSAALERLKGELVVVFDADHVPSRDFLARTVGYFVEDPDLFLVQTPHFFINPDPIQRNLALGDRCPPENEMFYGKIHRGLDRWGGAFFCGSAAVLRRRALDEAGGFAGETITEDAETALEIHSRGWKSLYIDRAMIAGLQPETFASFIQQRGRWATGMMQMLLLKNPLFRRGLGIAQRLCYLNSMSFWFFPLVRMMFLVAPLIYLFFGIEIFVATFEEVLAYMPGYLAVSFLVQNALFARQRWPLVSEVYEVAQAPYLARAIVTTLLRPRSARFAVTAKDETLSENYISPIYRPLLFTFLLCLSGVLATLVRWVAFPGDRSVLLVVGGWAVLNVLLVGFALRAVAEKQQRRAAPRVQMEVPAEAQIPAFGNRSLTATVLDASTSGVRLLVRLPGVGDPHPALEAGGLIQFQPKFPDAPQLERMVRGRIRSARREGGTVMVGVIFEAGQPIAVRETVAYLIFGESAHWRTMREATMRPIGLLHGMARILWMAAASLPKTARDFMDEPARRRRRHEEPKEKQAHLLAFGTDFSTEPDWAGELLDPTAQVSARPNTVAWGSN
T1 sequence (Q3J126 21-725 partner): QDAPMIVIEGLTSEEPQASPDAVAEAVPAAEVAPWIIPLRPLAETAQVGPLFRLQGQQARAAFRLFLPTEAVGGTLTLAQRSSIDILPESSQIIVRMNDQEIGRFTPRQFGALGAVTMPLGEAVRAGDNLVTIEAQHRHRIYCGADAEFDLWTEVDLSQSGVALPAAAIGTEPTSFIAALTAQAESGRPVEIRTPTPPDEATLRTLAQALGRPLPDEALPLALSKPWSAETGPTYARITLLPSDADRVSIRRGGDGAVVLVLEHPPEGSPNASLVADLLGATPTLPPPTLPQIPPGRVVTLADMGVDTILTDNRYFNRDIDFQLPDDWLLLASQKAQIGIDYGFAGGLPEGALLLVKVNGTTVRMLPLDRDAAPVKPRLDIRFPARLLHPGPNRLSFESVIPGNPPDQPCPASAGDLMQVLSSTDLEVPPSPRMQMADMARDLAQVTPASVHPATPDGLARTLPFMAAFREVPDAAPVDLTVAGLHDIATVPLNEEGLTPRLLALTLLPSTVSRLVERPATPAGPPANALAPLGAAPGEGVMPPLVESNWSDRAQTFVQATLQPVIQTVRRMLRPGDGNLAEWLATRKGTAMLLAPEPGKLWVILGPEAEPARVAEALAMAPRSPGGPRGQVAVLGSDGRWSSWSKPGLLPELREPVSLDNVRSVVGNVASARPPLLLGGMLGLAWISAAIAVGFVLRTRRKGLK
Description: (§1) Pyruvate kinase (PK)—and lactate dehydrogenase (LDH)-coupled activity assays were performed by incubating 0.5 μM cellulose synthase with 1 U PK and 1 U LDH, 0.5 mM NADH, 1 mM phosphoenolpyruvate, and 30 mM MgCl2 in 20 mM Tris pH 7.5, 100 mM NaCl, 5 mM cellobiose and 10% glycerol in a total volume of 20 μL. The cellulose synthase complex was added last to the reaction mix after a pre-incubation for 10 min at RT. The decrease in absorbance at 340 nm was measured in a SpectraMax plate reader in Corning 384 well clear flat bottom assay plates. Control reactions in the absence of cellulose synthase were performed to determine the background NADH oxidation. Data were plotted and analyzed in Origin (5) and fitted to monophasic Michaelis-Menten kinetics as described (3).

[2] = tested on: Rs BcsA-B complex; experiment: Cellulose synthase sedimentation assay (3H-labeled water-insoluble cellulose, scintillation counting); format: biochemical, Rhodobacter sphaeroides; settings: for divalent cation supporting cellulose synthase activity: 20 mM cation, 45 min 37° C.
Description: (FIG. 4A) Enzyme-coupled cellulose synthesis assays were performed as described in FIG. 3 in the absence or presence of 0.1 mg/ml E. coli BesZ. […] Inset: Radioactive sedimentation assay performed with ND-reconstituted BcsA-B synthesizing cellulose in the absence or presence of BcsZ. […] The obtained product is quantified relative to the polymer formed in the absence of any nucleoside diphosphate.
FIG. 9A-9B (also referred to as Example 1, Supplementary FIG. 3): Cation selectivity and pH optimum of cellulose synthase. (FIG. 9A) Cellulose synthesis reactions were performed in the presence of 20 mM of the indicated cations or in the absence of any additional divalent cations with and without addition of 20 mM EDTA. The activities are shown relative to the activity in the presence of magnesium. […] All activity assays were performed for 45 min at 37° C. with 1 μM PLs-reconstituted. Rs BcsA-B and by quantifying the accumulation of ^3H-labeled water insoluble cellulose as described.
Following incubation at 37° C. for 45 min, the polymerization reaction was terminated by addition of 2% SDS and the water-insoluble polymer was pelleted by centrifugation at 15,000 rpm at room temperature (RT). The obtained pellet was resuspended in 20 μL 50 mM Tris pH 7.5, 0.1 M NaCl and spotted at the origin of a descending Whatman-2MM chromatography paper, which was developed in an aqueous solution of 60% ethanol. For enzymatic degradation, the pellet was resuspended in 20 μL 50 mM sodium acetate pH 4.5 and 100 mM NaCl and was digested with 0.1 mg/ml of endo-β-1,4- or endo-β-1,3 glucanase from Aspergillus niger (TCI) or Trichoderma sp. (Megazyme), respectively. Following paper chromatography, the high molecular weight polymer retained at the origin was quantified by scintillation counting.
Following synthesis, the reactions were treated as described above.

[3] = tested on: Rs BcsA-B complex; experiment: Enzyme-coupled (PK/LDH) cellulose synthase activity assay, UDP formation followed via NADH oxidation at 340 nm; format: biochemical, Rhodobacter sphaeroides; settings: for residual activity with alternative substrate as only carbohydrate source, relative to UDP-Glc: 5 mM substrate, 0.5 μM PL-reconstituted BcsA-B
Description: FIG. 3A-3D (also referred to as Example 1, FIG. 3): Kinetic analysis of cellulose synthesis and stimulation by cyclic-di-GMP. (FIG. 3A) Cellulose synthesis reactions were performed in the presence of IU PK and LDH, 0.5 mM NADH and 1 mM PEP. The LDH-catalyzed oxidation of NADH to NAD^+ was monitored spectrophotometrically at 340 nm. […] Addition of 1 mM UDP to the reaction rapidly depletes NADH by circumventing cellulose synthesis. […] The data were fit to monophasic Michaelis-Menten kinetics. […] All reactions were performed at room temperature with 0.5 μM ND-reconstituted BcsA-B in a total volume of 20 μl.
Thus, the second product of the cellulose synthase reaction is UDP. […] Because PK recognizes UDP but not UMP as substrate (36), the successful coupling of cellulose synthesis with its activity implies the formation of UDP. To ensure that all BcsA-B complexes are accessible to the substrates and can contribute to the observed reaction, the complex was reconstituted into lipid nanodiscs (ND) (FIG. S4), which are edge-stabilized, planar lipid bilayer discs approximately 10 nm in diameter (37). At this size, each ND most likely contains a single BcsA-B complex (38).
as §1

[4] = 0.1 mg/ml E. coli BcsZ, ND-reconstituted BcsA-B

Molecule: O=c1ccn([C@@H]2O[C@H](COP(=O)(O)OP(=O)(O)O[C@H]3OC[C@@H](O)[C@H](O)[C@H]3O)[C@@H](O)[C@H]2O)c(=O)[nH]1 [UDP-Xyl, UDP-xylose]
- inhibition of polymer synthesis by alternative UDP-sugars [1]: strongest inhibitor
- reduction of the apparent reaction rate (inhibition) [1]: about 60%

Molecule: [Mg+2] [Mg2+]
- divalent cation supporting cellulose synthase activity ([2]; 1 μM PL-reconstituted BcsA-B): approximately equal activity levels

Molecule: O=C(O)[C@H]1O[C@H](OP(=O)(O)OP(=O)(O)OC[C@H]2O[C@@H](n3ccc(=O)[nH]c3=O)[C@H](O)[C@@H]2O)[C@H](O)[C@@H](O)[C@@H]1O [UDP-glucuronic acid]
- residual activity with alternative substrate as only carbohydrate source, relative to UDP-Glc [3]: about 20%

Molecule: CC(=O)N[C@H]1[C@@H](OP(=O)(O)OP(=O)(O)OC[C@H]2O[C@@H](n3ccc(=O)[nH]c3=O)[C@H](O)[C@@H]2O)O[C@H](CO)[C@@H](O)[C@@H]1O [UDP-NAG, UDP-N-acetyl glucosamine]
- inhibition of polymer synthesis by alternative UDP-sugars [1]: concentration-dependent inhibition
- reduction of the apparent reaction rate (inhibition) [1]: 20%

Molecule: O=c1ccn([C@@H]2O[C@H](COP(=O)(O)OP(=O)(O)O[C@H]3OC[C@@H](O)[C@H](O)[C@H]3O)[C@@H](O)[C@H]2O)c(=O)[nH]1 [UDP-xylose]
- residual activity with alternative substrate as only carbohydrate source, relative to UDP-Glc [3]: about 20%

Molecule: O=c1ccn([C@@H]2O[C@H](COP(=O)(O)OP(=O)(O)O[C@H]3OC[C@H](O)[C@H](O)[C@H]3O)[C@@H](O)[C@H]2O)c(=O)[nH]1 [UDP-arabinose]
- residual activity with alternative substrate as only carbohydrate source, relative to UDP-Glc [3]: about 20%

Molecule: [Mn+2] [Mn2+]
- divalent cation supporting cellulose synthase activity ([2]; 1 μM PL-reconstituted BcsA-B): approximately equal activity levels

Molecule: O=c1ccn([C@@H]2O[C@H](COP(=O)(O)OP(=O)(O)O)[C@@H](O)[C@H]2O)c(=O)[nH]1 [UDP, uridine diphosphate]
- product formed relative to absence of nucleoside diphosphate ([2]; 0.7 mM UDP, 0.5 mM UDP-Glc, 1 μM PL-reconstituted BcsA-B, 60 min 37° C.): 50%
- mode of inhibition of cellulose synthase ([2]; 0.7 mM UDP, increasing UDP-Glc): competitive

Molecule: CC(=O)N[C@H]1[C@@H](OP(=O)(O)OP(=O)(O)OC[C@H]2O[C@@H](n3ccc(=O)[nH]c3=O)[C@H](O)[C@@H]2O)O[C@H](CO)[C@@H](O)[C@@H]1O [UDP-N-acetyl glucosamine]
- residual activity with alternative substrate as only carbohydrate source, relative to UDP-Glc [3]: about 20%

B1: BcsZ: E. coli periplasmic cellulase encoded in cellulose synthase operons (protein, UniProt P37651 22-368, looked up)
Endoglucanase: ACTWPAWEQFKKDYISQEGRVIDPSDARKITTSEGQSYGMFSALAANDRAAFDNILDWTQNNLAQGSLKERLPAWLWGKKENSKWEVLDSNSASDGDVWMAWSLLEAGRLWKEQRYTDIGSALLKRIAREEVVTVPGLGSMLLPGKVGFAEDNSWRFNPSYLPPTLAQYFTRFGAPWTTLRETNQRLLLETAPKGFSPDWVRYEKDKGWQLKAEKTLISSYDAIRVYMWVGMMPDSDPQKARMLNRFKPMATFTEKNGYPPEKVDVATGKAQGKGPVGFSAAMLPFLQNRDAQAVQRQRVADNFPGSDAYYNYVLTLFGQGWDQHRFRFSTKGELLPDWGQECANSH
- effect on BcsA-B's apparent reaction rate [3, 4]: does not change
- effect on accumulation of HMW cellulose [2, 4]: prevents the accumulation of HMW cellulose
